Structures can show the parent of a compound that is named as a salt.
Assays:
[1] = system: lipopolysaccharide-induced depression mouse model; assay: lipopolysaccharide-induced depression mouse model (open field, forced swimming test, body weight); format: in vivo, ICR mice
Experimental: Positive drug: fluoxetine hydrochloride capsule (specification 20 mg), take the content in a mortar, add 40 ml of 0.5% CMC-Na solution while grinding, to a suspended state, set EP tube for use; test drug (compound 5): dissolve into 5, 10, and 20 mg/ml solutions in distilled water, respectively, and put them in EP tubes for later use; modeling drug (LPS): take a frozen lipopolysaccharide PBS solution (1.2 mg: 1.2 ml), and after thawing Use a pipette to take 1 ml into the EP tube, replace with a new pipette tip and pipette 9 ml of normal saline into the EP tube, shake well for use.
Except for the first group (blank control group), other groups of animals were intraperitoneally injected with LPS 2 h before the last administration on the 7th day to the mice in the model group, the positive drug group, and the low, middle and high dose groups of the test drug.
The first group was the blank control group, which was given 0.5% CMC-Na 0.2 ml/20 g by gavage; the second group was the model group, which was given 0.5% CMC-Na by gavage; the third group was the positive drug group, which was given by gavage Flunarizine hydrochloride (sibilin) 1 mg/kg; the fourth group was the low-dose group of the test drug, which was given 100 mg/kg of compound 5 by gavage; the fifth group was the medium-dose group of the test drug, which was given 200 mg/kg by gavage. kg of compound 5; the sixth group was the test drug high-dose group, and 400 mg/kg of compound 5 was administered by gavage. The drug was administered for one week, and the second to sixth groups were intraperitoneally injected with 1 mg/kg (0.2 ml/20 g) of LPS on the seventh day to establish a model.
On the 7th day, before the last administration and modeling, the effect of the drug on the spontaneous activity of the mice should be investigated, and it is excluded that the drug increases the spontaneous activity of the mice and interferes with the immobility time in the forced swimming experiment. The total migration distance of each mouse in the open field (50×50×50 cm) within 5 min was calculated using the open field experimental instrument and related computer software. Before the data collection, each mouse was given 5 min to familiarize with the open field environment, after each mouse was tested, its excrement was removed and the odor was eliminated with an alcohol spray bottle.
Because the air temperature is low, it is appropriate to control the water temperature by adding hot water to the cylinder.
In the spontaneous activity, the behavioral index selects the total migration distance of mice in the open field within 5 minutes,
by tracking the movement trajectory of mice through monitoring devices, and using computer software, the total distance of movement can be directly obtained; in the FST experiment, the mice were placed in a into a transparent cylinder filled with warm water (about 25° C.) for 6 minutes, the mice will experience struggling, swimming and floating behaviors, the time when the mice stop struggling to float on the water surface is identified as a state of despair caused by depression, by using monitoring equipment and computer software to statistically analyze the state of mice after 4 minutes, the total “Immobility time” can be directly obtained.

[2] = system: hot plate pain threshold in mice; assay: hot plate method, compound 1, intragastric administration; format: in vivo
Experimental: All the mice participating in the experiment were subjected to hot plate pain threshold detection before the experiment, and qualified mice with pain threshold of 10-40 s were screened.
Accurately weigh an appropriate amount of compound 1, dissolve it in distilled water and prepare a mother liquor of 100 mg/ml, then dilute to 1.25 mg/ml (25 mg/kg), 2.5 mg/ml (50 mg/kg) with double distilled water respectively; accurately weigh an appropriate amount of the positive control drug gabapentin, dissolve in distilled water and prepare a 100 mg/ml mother solution, and then dilute to 10 mg/ml (200 mg/kg) with double distilled water. All medicines are prepared and utilized as needed.
40 only qualified mice were divided into 4 groups, half male and half female in each group. The first group is the blank group, no administration; the second group is the positive control (gabapentin) 25 mg/kg group; the third group is the test drug 25 mg/kg group; the fourth group is the test drug 50 mg/kg group 4. All were administered by gavage.
The mice were placed in a hot plate apparatus at a temperature of 55±0.5° C., and the pain thresholds of the mice were measured and recorded before administration and 60 min after administration.

[3] = system: nitroglycerin-induced migraine mouse model; assay: nitroglycerin-induced migraine mouse model (hot plate, head scratching, body weight); format: in vivo, ICR mice
Experimental: 48 ICR mice weigt 18-22 g, half male and half female; purchased from Qinglongshan Animal Breeding Farm, Jiangning District, Nanjing City, certificate: SCXK (Su) 2017-0001; rearing conditions: room temperature 18-20° C., same sex rearing in separate cages, 12 hours of light, regular ventilation, conventional full-price solid feed feeding, bedding changed every two days; 48 mice were randomly divided into 6 groups (blank control group, model group, positive drug group, low-dose group of test drug, medium-dose group of test drug, high-dose group of test drug), 8 animals (4♀4) in each group, marked No. 1-8 with picric acid respectively.
Solvent: 0.5% CMC-Na aqueous solution; positive drug: flunarizine hydrochloride (sibelin) capsules (specification 5 mg), take the contents in a mortar, add 100 ml of 0.5% CMC-Na solution while grinding, placed in EP tubes for standby; Test drug (compound 5): dissolve into 5, 10, 20 mg/ml solutions with distilled water respectively, and placed in EP tubes for standby; Modeling drug (nitroglycerin): take 2 nitroglycerin tablets (specification 5 mg), crushed into powder, placed in EP tubes, added 500 μl of propylene glycol with a pipette and shaken well, standing still for 5 minutes, added 9.5 ml of normal saline, shaken well and standing still overnight, take the supernatant (containing nitroglycerin) 1 mg/ml) for use.
Except for the first group (blank control group), animals in other groups were subcutaneously injected with 10 mg/kg (0.2 ml/20 g) of nitroglycerin back-up solution 1 h after each administration (modeling once every other day on the 1st, 3rd, and 5th days).
The first group was the blank control group, which was given 0.5% CMC-Na 0.2 ml/20 g by gavage; the second group was the model group, which was given 0.5% CMC-Na by gavage; the third group was the positive drug group, which was given by gavage Flunarizine hydrochloride (sibilin) 1 mg/kg; the fourth group was the low-dose group of test drug, which was given 100 mg/kg of compound 5 by gavage; the fifth group was the medium-dose group of test drug, which was given 200 mg/kg of compound 5 by gavage; the sixth group was the high-dose group of test drug, which was given 400 mg/kg of compound 5 by gavage. Dosing every other day on days 1, 3, and 5.
In behavioral studies, mice scratching their heads for more than 5 times or scratching their faces with forelimbs for more than 5 times were identified as migraine-related behaviors caused by modeling, with a record of scratching their heads once; in the hot plate method, mice lifted their hind limbs and licked their hind feet as the observation indicator, record the time immediately.

reserpine-treated mice = assay: mouse sugar water preference test (reserpine depression model); format: in vivo, Kunming mice; conditions: after Res 6 mg/kg i.p., CLI 50, Pro 25, A1P1 24 and 25, compound 5 56 mg/kg i.p.; for Sugar water preference (sugar water drinking amount/total drinking amount): Means±SEM, Res + DMSO 0.642 ± 0.036, DMSO 0.901 ± 0.026
Experimental: Experimental drug, clomipramine (CLI), sigma company, batch number: C7291, 10 mg/ml (10% DMSO); reserpine (Res), sigma company, batch number: 83580, 1 mg/ml (10% DMSO);
SPF adult male Kunming mice, 20-30 g, Laboratory Animal Center of Lanzhou University, animal certificate number: SCXK (Gan) 2018-0002, reared in separate cages, temperature 22±1° C., humidity […], 12 h/12 h light and dark cycle controlled by dynamic light (light-on time 8:000 h, light-off time 20:000 h, light intensity≈100 lux), animals could eat and move freely.
(§1) Statistical analysis, the experimental data were analyzed by SPSS 19.0 statistical software, and all data were expressed as Means±SEM.

[4] = system: reserpine depression model mice; assay: forced swimming test in mice (reserpine depression model); format: in vivo, Kunming mice; conditions: after Res 6 mg/kg i.p., CLI 50, Pro 25, A1P1 24 and 25, compound 5 56 mg/kg i.p.; for Forced swimming immobility time: 5 min test, Means±SEM, Res + DMSO 169.82 ± 11.22, DMSO 106.72 ± 16.49
Experimental: Experimental Drug, Animal, Grouping and Administration are Same as Sugar Water Preference Experiment Method.
Preparation of depression animal models, acute intraperitoneal injection of 6 mg/kg Res can cause a continuous decrease in monoamine neurotransmitters in the brain for 1 week, and depression-like behaviors last for 72 hours, it is often utilized for the preparation of depression models (Huang et al., 2004).
Forced swimming experiment process, the forced swimming experiment is an experiment in which animals are placed in an unavoidable stressful environment to detect the despair state of animal behavior (Porsolt et al., 1978). Male Kunming mice were selected and randomly divided into groups. Conduct in a quiet and enclosed behavioral observation room, with red lights for indoor lighting (25 lux). The experiment is divided into two stages, the first stage: adaptation experiment, 1 day before the test, 9:00-12:00 h, put the animals into the forced swimming test equipment (plexiglass drum: diameter 20 cm, height 25 cm, water depth 12 cm, water temperature 21-25° C., the upper side CCD camera is connected to the computer to record) after 15 minutes of adaptation, take it out, dry the hair with a towel and put it back into the cage. The second stage: testing experiment, animals in each group were put into the forced swimming bucket for 5 minutes at the same time period, and the behavioral activities during the testing period were tracked and recorded by digital cameras and then analyzed. Immobility time: The animal floats on the water surface, with no movement of the limbs or slight movement of the hind limbs to keep the head above the water surface. Evaluate depression like behavior by detecting the despair state of animals based on their immobility time.
as §1

righting reflex in mice = assay: mouse righting reflex test (sedative and hypnotic effects); format: in vivo, Kunming mice; conditions: intraperitoneal, Pro 25 mg/kg, n = 7
Experimental: Experimental animals, SPF Kunming mice, male, 20-30 g, Laboratory Animal Center of Lanzhou University (certificate number: SCXK (Gan) 2018-0002), reared in separate cages, temperature, 22±1° C., humidity, 50%, automatic in the light-controlled 12 h/12 h light-dark cycle (light-on time 8:00 h, light-off time 20:00 h, light intensity ≈100 lux) environment, free food and activities, adapted to the experimental environment for 5 days.
as §1

[5] = compound 5 56 mg/kg, A1P1 24 and 25 mg/kg, Dia 5 mg/kg

CNCCC(Oc1ccc(C(F)(F)F)cc1)c1ccccc1 (stereo not shown) [fluoxetine hydrochloride, reference compound]
effect on body weight of mice ([1]; compound 5 100, 200, 400 mg/kg and positive drug, gavage for one week): no significant effect
alleviation of depressive behavior caused by LPS ([1]; compound 5 100, 200, 400 mg/kg and positive drug, gavage for one week, no statistical difference found): certain alleviation effect
spontaneous activity: total migration distance in open field within 5 minutes ([1]; reference blank group, day 7 before last administration, all dose groups, p>0.05): no significant effect
FST immobility time ([1]; reference model group, compound 5 100, 200, 400 mg/kg and positive drug, gavage for one week, 4 h after LPS): not significantly different (p>0.05)

NCC1(CC(=O)O)CCCCC1 [Gabapentin, gabapentin, reference compound]
Pain response time Before administration ([2]; 25 mg/kg gavage group, baseline, n 10, X ± SD): 16.6 ± 5.2 s
Pain response time After administration ([2]; 25 mg/kg gavage, 60 min after administration, X ± SD): 33.5 ± 15.0 s
Pain response time extension rate ([2]; 25 mg/kg gavage, 60 min after administration, blank group 3.9 ± 6.6): 113.4 ± 99.1 %

Fc1ccc(C(c2ccc(F)cc2)N2CCN(C/C=C/c3ccccc3)CC2)cc1 [flunarizine hydrochloride, reference compound]
weight gain of mice ([3]; reference blank group, compound 5 100, 200, 400 mg/kg, flunarizine hydrochloride 1 mg/kg, gavage, p>0.05): no significant difference
hind feet licking time (hot plate) ([3]; reference model group, flunarizine hydrochloride 1 mg/kg gavage, 45 min after modeling, day 5, p<0.05): significant difference
total number of head scratching times ([3]; reference model group, flunarizine hydrochloride 1 mg/kg gavage, day 5): extremely significant (p<0.01)

CC(C)c1cccc(C(C)C)c1O [Pro, Propofol, reference compound]
change of preference for sugar water compared with the Res+DMSO group (reserpine-treated mice): rose significantly
Sugar water preference (sugar water drinking amount/total drinking amount) (reserpine-treated mice): 0.789 ± 0.043
change of forced swimming immobility time compared with the Res+DMSO group [4]: slightly shortened
Forced swimming immobility time [4]: 145.01 ± 21.21 s
Duration (disappearance to recovery of the righting reflex) (righting reflex in mice): 150.97 s
Observation of activity and other phenomena (righting reflex in mice; [5]): significantly reduced

CN(C)CCCN1c2ccccc2CCc2ccc(Cl)cc21 [CLI, clomipramine, reference compound]
change of preference for sugar water compared with the Res+DMSO group (reserpine-treated mice): significantly increased
Sugar water preference (sugar water drinking amount/total drinking amount) (reserpine-treated mice): 0.812 ± 0.025
change of forced swimming immobility time compared with the Res+DMSO group [4]: significantly shortened
Forced swimming immobility time [4]: 80.66 ± 23.68 s

CN1C(=O)CN=C(c2ccccc2)c2cc(Cl)ccc21 [Dia, Diazepam, reference compound]
Disappearance time (latency of disappearance of the righting reflex) (righting reflex in mice; [5]): did not disappear
Observation of activity and other phenomena (righting reflex in mice; [5]): significantly reduced
